What was measured:
[1] = system: Echinochloa oryzoides (Ard.) Fritsch.; test: Preemergence weed control under flooded paddy conditions, ECHORC (Watergrass (Calif.)); assay type: in vivo; conditions: preemergence weeds, flooded paddy, herbicidal effect rating 0-9, three to four weeks after treatment
Cyperus iria [2] = test: Preemergence weed control under flooded paddy conditions, CYPIR (Rice Flatsedge); assay type: in vivo; conditions: preemergence weeds, flooded paddy, herbicidal effect rating 0-9, three to four weeks after treatment
[3] = system: Cyperus serotinus, Rottb.; test: Preemergence weed control under flooded paddy conditions, CYPSE (Flatsedge); assay type: in vivo; conditions: preemergence weeds, herbicidal effect rating 0-9, three to four weeks after treatment
[4] = system: Monochoria vaginalis, Presl.; test: Preemergence weed control under flooded paddy conditions, MOOVA (Monochoria); assay type: in vivo; conditions: preemergence weeds, flooded paddy, herbicidal effect rating 0-9, three to four weeks after treatment
Sagittaria pygmaea, L. [5] = test: Preemergence weed control under flooded paddy conditions, SAGPY (Arrowhead (Pygmaea)); assay type: in vivo; conditions: preemergence weeds, flooded paddy, herbicidal effect rating 0-9, three to four weeks after treatment
[6] = system: Echinochloa oryzoides (Ard.) Fritsch.; test: Postemergence weed control under flooded paddy conditions, ECHORC (Watergrass (Calif.)); assay type: in vivo; conditions: rated three to four weeks after treatment
Cyperus iria [7] = test: Postemergence weed control under flooded paddy conditions, CYPIR (Rice Flatsedge); assay type: in vivo; conditions: rated three to four weeks after treatment
[8] = system: Cyperus serotinus, Rottb.; test: Postemergence weed control under flooded paddy conditions, CYPSE (Flatsedge); assay type: in vivo; conditions: rated three to four weeks after treatment
[9] = system: Monochoria vaginalis, Presl.; test: Postemergence weed control under flooded paddy conditions, MOOVA (Monochoria); assay type: in vivo; conditions: rated three to four weeks after treatment
Sagittaria pygmaea, L. [10] = test: Postemergence weed control under flooded paddy conditions, SAGPY (Arrowhead (Pygmaea)); assay type: in vivo; conditions: rated three to four weeks after treatment
[11] = system: Oryza sativa, (L.) Tebonnet; test: Rice tolerance to post-transplant applications under flooded paddy conditions (Example 187), ORYSAT (Rice, Tebonnet); conditions: herbicidal effect rating 0-9, three to four weeks after treatment
[12] = system: Oryza sativa, (L.) Tebonnet; test: Rice tolerance to post-transplant applications under flooded paddy conditions (Example 188), ORYSAT (Rice, Tebonnet); conditions: rated three to four weeks after treatment

COc1cc(C)c(I)cc1-c1nsc2ccc(-n3c(=O)cc(C(F)(F)F)n(C)c3=O)cc12 [Example 429, 2,4(1H,3H)-Pyrimidinedione, 3-[3-(5-iodo-2-methoxy-p-tolyl)-1,2-benzisothiazol-5-yl]-1-methyl-6-(trifluoromethyl)-]
ECHORC ([1]; 0.0320 kg/ha): 9.0
ECHORC ([1]; 0.0620 kg/ha): 9.0
ECHORC ([1]; 0.1250 kg/ha): 9.0
ECHORC ([1]; 0.2500 kg/ha): 9.0
CYPIR (Cyperus iria [2]; 0.0320 kg/ha): 7.3
CYPIR (Cyperus iria [2]; 0.0620 kg/ha): 7.7
CYPIR (Cyperus iria [2]; 0.1250 kg/ha): 8.3
CYPIR (Cyperus iria [2]; 0.2500 kg/ha): 9.0
CYPSE ([3]; 0.0320 kg/ha): 0.0
CYPSE ([3]; 0.0620 kg/ha): 1.0
CYPSE ([3]; 0.1250 kg/ha): 1.0
CYPSE ([3]; 0.2500 kg/ha): 1.0
MOOVA ([4]; 0.0320 kg/ha): 9.0
MOOVA ([4]; 0.0620 kg/ha): 9.0
MOOVA ([4]; 0.1250 kg/ha): 9.0
MOOVA ([4]; 0.2500 kg/ha): 9.0
SAGPY (Sagittaria pygmaea, L. [5]; 0.0320 kg/ha): 2.0
SAGPY (Sagittaria pygmaea, L. [5]; 0.0620 kg/ha): 2.3
SAGPY (Sagittaria pygmaea, L. [5]; 0.1250 kg/ha): 2.3
SAGPY (Sagittaria pygmaea, L. [5]; 0.2500 kg/ha): 3.0
herbicidal effect rating, ECHORC ([6]; Rate 0.0320 kg/ha): 4.0
herbicidal effect rating, ECHORC ([6]; Rate 0.0620 kg/ha): 6.0
herbicidal effect rating, ECHORC ([6]; Rate 0.1250 kg/ha): 6.0
herbicidal effect rating, ECHORC ([6]; Rate 0.2500 kg/ha): 9.0
herbicidal effect rating, CYPIR (Cyperus iria [7]; Rate 0.0320 kg/ha): 4.0
herbicidal effect rating, CYPIR (Cyperus iria [7]; Rate 0.0620 kg/ha): 6.0
herbicidal effect rating, CYPIR (Cyperus iria [7]; Rate 0.1250 kg/ha): 7.0
herbicidal effect rating, CYPIR (Cyperus iria [7]; Rate 0.2500 kg/ha): 9.0
herbicidal effect rating, CYPSE ([8]; Rate 0.0320 kg/ha): 0.0
herbicidal effect rating, CYPSE ([8]; Rate 0.0620 kg/ha): 0.0
herbicidal effect rating, CYPSE ([8]; Rate 0.1250 kg/ha): 0.0
herbicidal effect rating, CYPSE ([8]; Rate 0.2500 kg/ha): 0.0
herbicidal effect rating, MOOVA ([9]; Rate 0.0320 kg/ha): 2.0
herbicidal effect rating, MOOVA ([9]; Rate 0.0620 kg/ha): 4.0
herbicidal effect rating, MOOVA ([9]; Rate 0.1250 kg/ha): 7.0
herbicidal effect rating, MOOVA ([9]; Rate 0.2500 kg/ha): 7.0
herbicidal effect rating, SAGPY (Sagittaria pygmaea, L. [10]; Rate 0.0320 kg/ha): 0.0
herbicidal effect rating, SAGPY (Sagittaria pygmaea, L. [10]; Rate 0.0620 kg/ha): 0.0
herbicidal effect rating, SAGPY (Sagittaria pygmaea, L. [10]; Rate 0.1250 kg/ha): 0.0
herbicidal effect rating, SAGPY (Sagittaria pygmaea, L. [10]; Rate 0.2500 kg/ha): 0.0
ORYSAT ([11]; 0.0320 kg/ha): 1.3
ORYSAT ([11]; 0.0620 kg/ha): 2.0
ORYSAT ([11]; 0.1250 kg/ha): 2.3
ORYSAT ([11]; 0.2500 kg/ha): 3.0
herbicidal effect rating, ORYSAT (rice tolerance) ([12]; Rate 0.0320 kg/ha): 1.0
herbicidal effect rating, ORYSAT (rice tolerance) ([12]; Rate 0.0620 kg/ha): 1.0
herbicidal effect rating, ORYSAT (rice tolerance) ([12]; Rate 0.1250 kg/ha): 2.0
herbicidal effect rating, ORYSAT (rice tolerance) ([12]; Rate 0.2500 kg/ha): 2.0

CCCCC(=O)c1nsc2ccc(-n3c(=O)cc(C(F)(F)F)n(C)c3=O)cc12 [Example 431, 2,4(1H,3H)-Pyrimidinedione, 1-methyl-6-(trifluoromethyl)-3-(3-valeryl-1,2-benzisothiazol-5-yl)-]
ECHORC ([1]; 0.0320 kg/ha): 8.0
ECHORC ([1]; 0.0620 kg/ha): 9.0
ECHORC ([1]; 0.1250 kg/ha): 8.5
ECHORC ([1]; 0.2500 kg/ha): 9.0
CYPIR (Cyperus iria [2]; 0.0320 kg/ha): 8.0
CYPIR (Cyperus iria [2]; 0.0620 kg/ha): 9.0
CYPIR (Cyperus iria [2]; 0.1250 kg/ha): 9.0
CYPIR (Cyperus iria [2]; 0.2500 kg/ha): 9.0
CYPSE ([3]; 0.0320 kg/ha): 0.0
CYPSE ([3]; 0.0620 kg/ha): 4.0
CYPSE ([3]; 0.1250 kg/ha): 7.5
CYPSE ([3]; 0.2500 kg/ha): 9.0
MOOVA ([4]; 0.0320 kg/ha): 9.0
MOOVA ([4]; 0.0620 kg/ha): 9.0
MOOVA ([4]; 0.1250 kg/ha): 9.0
MOOVA ([4]; 0.2500 kg/ha): 9.0
SAGPY (Sagittaria pygmaea, L. [5]; 0.0320 kg/ha): 3.5
SAGPY (Sagittaria pygmaea, L. [5]; 0.0620 kg/ha): 5.5
SAGPY (Sagittaria pygmaea, L. [5]; 0.1250 kg/ha): 7.5
SAGPY (Sagittaria pygmaea, L. [5]; 0.2500 kg/ha): 9.0
herbicidal effect rating, ECHORC ([6]; Rate 0.0320 kg/ha): 7.0
herbicidal effect rating, ECHORC ([6]; Rate 0.0620 kg/ha): 9.0
herbicidal effect rating, ECHORC ([6]; Rate 0.1250 kg/ha): 9.0
herbicidal effect rating, ECHORC ([6]; Rate 0.2500 kg/ha): 9.0
herbicidal effect rating, CYPIR (Cyperus iria [7]; Rate 0.0320 kg/ha): 4.0
herbicidal effect rating, CYPIR (Cyperus iria [7]; Rate 0.0620 kg/ha): 7.0
herbicidal effect rating, CYPIR (Cyperus iria [7]; Rate 0.1250 kg/ha): 9.0
herbicidal effect rating, CYPIR (Cyperus iria [7]; Rate 0.2500 kg/ha): 9.0
herbicidal effect rating, CYPSE ([8]; Rate 0.0320 kg/ha): 0.0
herbicidal effect rating, CYPSE ([8]; Rate 0.0620 kg/ha): 0.0
herbicidal effect rating, CYPSE ([8]; Rate 0.1250 kg/ha): 0.0
herbicidal effect rating, CYPSE ([8]; Rate 0.2500 kg/ha): 4.0
herbicidal effect rating, MOOVA ([9]; Rate 0.0320 kg/ha): 6.0
herbicidal effect rating, MOOVA ([9]; Rate 0.0620 kg/ha): 9.0
herbicidal effect rating, MOOVA ([9]; Rate 0.1250 kg/ha): 9.0
herbicidal effect rating, MOOVA ([9]; Rate 0.2500 kg/ha): 9.0
herbicidal effect rating, SAGPY (Sagittaria pygmaea, L. [10]; Rate 0.0320 kg/ha): 0.0
herbicidal effect rating, SAGPY (Sagittaria pygmaea, L. [10]; Rate 0.0620 kg/ha): 0.0
herbicidal effect rating, SAGPY (Sagittaria pygmaea, L. [10]; Rate 0.1250 kg/ha): 0.0
herbicidal effect rating, SAGPY (Sagittaria pygmaea, L. [10]; Rate 0.2500 kg/ha): 4.0
ORYSAT ([11]; 0.0320 kg/ha): 3.5
ORYSAT ([11]; 0.0620 kg/ha): 5.5
ORYSAT ([11]; 0.1250 kg/ha): 5.0
ORYSAT ([11]; 0.2500 kg/ha): 6.5
herbicidal effect rating, ORYSAT (rice tolerance) ([12]; Rate 0.0320 kg/ha): 3.0
herbicidal effect rating, ORYSAT (rice tolerance) ([12]; Rate 0.0620 kg/ha): 3.0
herbicidal effect rating, ORYSAT (rice tolerance) ([12]; Rate 0.1250 kg/ha): 3.0
herbicidal effect rating, ORYSAT (rice tolerance) ([12]; Rate 0.2500 kg/ha): 7.0

Reference: EP0908457B1, “3-(1,2-benzisothiazol- and isoxazol-5-Y1)-2,4(1H,3H)-pyrimidinedione or thione and 3-(1,2-benzisothiazol- and isoxazol-5-y1)-4(3H)-pyrimidinone or thione herbicidal agents” (BASF AKTIENGESELLSCHAFT, priority 1997, dated 1999)
